From ChEMBL document CHEMBL4251628, “Novel click modifiable thioquinazolinones as anti-inflammatory agents: Design, synthesis, biological evaluation and docking study” (Eur J Med Chem, 2018)

Experiments:
[1] = molecular target: T1, Prostaglandin G/H synthase 1 (Ovis aries, UniProt P05979); experiment: Inhibition of ovine COX1 assessed as reduction in PGF2alpha production using arachidonic acid as substrate by colorimetric method
T1 sequence (P05979 whole entry): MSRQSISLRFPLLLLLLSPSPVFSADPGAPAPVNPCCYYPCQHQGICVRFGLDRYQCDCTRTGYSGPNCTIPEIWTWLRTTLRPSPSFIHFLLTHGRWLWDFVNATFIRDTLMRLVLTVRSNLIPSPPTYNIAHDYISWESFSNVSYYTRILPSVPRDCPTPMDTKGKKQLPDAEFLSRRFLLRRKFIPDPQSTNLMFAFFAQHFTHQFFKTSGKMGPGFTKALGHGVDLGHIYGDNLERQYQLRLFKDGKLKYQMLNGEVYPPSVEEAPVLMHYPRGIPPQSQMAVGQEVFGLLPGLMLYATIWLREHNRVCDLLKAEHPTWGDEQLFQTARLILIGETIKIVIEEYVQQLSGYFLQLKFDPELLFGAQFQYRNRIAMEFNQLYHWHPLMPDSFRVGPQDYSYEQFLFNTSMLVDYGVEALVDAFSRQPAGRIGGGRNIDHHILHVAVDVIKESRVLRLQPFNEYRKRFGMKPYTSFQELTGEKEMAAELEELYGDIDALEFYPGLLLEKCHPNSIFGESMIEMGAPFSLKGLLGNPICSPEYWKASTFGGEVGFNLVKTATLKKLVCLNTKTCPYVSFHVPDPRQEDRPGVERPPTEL

Rattus norvegicus [2] = experiment: Anti-inflammatory activity in rat acute inflammation model assessed as inhibition of formalin-induced paw edema at 5 mg/kg, po measured after 4 hrs relative to control; type: functional
Rattus norvegicus [3] = experiment: Anti-inflammatory activity in rat acute inflammation model assessed as inhibition of formalin-induced paw edema at 5 mg/kg, po measured after 4 hrs relative to celecoxib; type: functional
Rattus norvegicus [4] = experiment: Anti-inflammatory activity in rat acute inflammation model assessed as inhibition of formalin-induced paw edema at 5 mg/kg, po measured after 4 hrs relative to negative control
[5] = Inhibition of soybean 15-LOX using linoleic acid as substrate by colorimetric method; set-up: species or system Glycine max
THP-1 [6] = experiment: Inhibition of PMA-induced human THP1 monocytes differentiation in to macrophages preincubated for 6 hrs followed by PMA stimulation by phase contrast microscopic method; type: functional, cell-based
Rattus norvegicus [7] = experiment: Ulcerogenicity in Wistar rat assessed as hyperemia in gastric mucosa at 60 mg/kg, po after 6 hrs; type: toxicity, organism-based; conditions: in vivo
Rattus norvegicus [8] = experiment: Ulcerogenicity in Wistar rat assessed as congested blood vessels in gastric mucosa esophagus at 60 mg/kg, po after 6 hrs by H and E staining based light microscopic method; type: toxicity, organism-based; conditions: in vivo
Rattus norvegicus [9] = experiment: Ulcerogenicity in Wistar rat assessed as maceration of gastric mucosa at 60 mg/kg, po after 6 hrs by H and E staining based light microscopic method; type: toxicity, organism-based; conditions: in vivo
Rattus norvegicus [10] = experiment: Ulcerogenicity in Wistar rat assessed as necrosis of gastric mucosa at 60 mg/kg, po after 6 hrs by H and E staining based light microscopic method; type: toxicity, organism-based; conditions: in vivo
THP-1 [11] = experiment: Cytotoxicity against human THP1 cells assessed as reduction in cell viability after 30 hrs by MTS assay; type: cell-based; conditions: thp-1, 30 h
Rattus norvegicus [12] = experiment: Ulcerogenicity in Wistar rat assessed as lymphocytic infilteration in gastric mucosa po after 6 hrs by H and E staining based light microscopic method; conditions: in vivo
[13] = molecular target: T2, Serine/threonine-protein kinase Chk1 (Homo sapiens, UniProt O14757); experiment: Inhibition of CHK1 (unknown origin)
T2 sequence (O14757 whole entry): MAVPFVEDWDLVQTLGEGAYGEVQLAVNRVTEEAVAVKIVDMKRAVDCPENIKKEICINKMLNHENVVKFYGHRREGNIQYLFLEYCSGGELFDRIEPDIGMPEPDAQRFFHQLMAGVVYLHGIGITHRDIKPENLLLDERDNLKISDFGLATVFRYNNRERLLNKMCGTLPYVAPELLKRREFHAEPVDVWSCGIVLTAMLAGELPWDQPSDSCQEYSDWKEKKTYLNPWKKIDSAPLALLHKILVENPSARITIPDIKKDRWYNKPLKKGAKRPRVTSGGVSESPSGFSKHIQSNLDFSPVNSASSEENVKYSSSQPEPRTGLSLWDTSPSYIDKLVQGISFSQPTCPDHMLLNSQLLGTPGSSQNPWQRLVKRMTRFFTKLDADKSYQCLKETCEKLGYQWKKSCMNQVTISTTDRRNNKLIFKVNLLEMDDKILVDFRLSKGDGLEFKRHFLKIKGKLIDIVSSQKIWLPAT

Rattus norvegicus [14] = experiment: Ulcerogenicity in Wistar rat assessed as effect on gastro-esophageal junction at 60 mg/kg, po after 6 hrs by H and E staining based light microscopic method; type: toxicity, organism-based; conditions: in vivo

C#CCSc1nc2ccccc2c(=O)n1-c1ccccc1
IC50 [1]: 3.78 µM

COc1ccc(-c2cc(CSc3nc4ccccc4c(=O)n3-c3ccc(Br)cc3)on2)cc1OC
IC50 [1]: 4.57 µM | inhibition in vivo at 5 mg/kg (Rattus norvegicus [2]): 51.4% | inhibition in vivo at 5 mg/kg (Rattus norvegicus [3]): 167% | inhibition in vivo at 5 mg/kg (Rattus norvegicus [4]): 50%

COc1ccc(-n2c(SCc3cn(-c4ccc(Br)cc4)nn3)nc3ccccc3c2=O)cc1
IC50 [1]: 7.63 µM

COc1ccc(-n2c(SCc3cn(-c4ccccc4)nn3)nc3ccccc3c2=O)cc1
IC50 [1]: 10.5 µM

O=c1c2ccccc2nc(SCc2cc(-c3ccc(Cl)cc3)no2)n1-c1ccc(Cl)cc1
IC50 [1]: 5.61 µM

O=c1c2ccccc2nc(SCc2cn(-c3ccccc3)nn2)n1-c1ccc(Cl)cc1
IC50 [1]: 8.24 µM

O=c1c2ccccc2nc(SCc2cn(-c3ccc(Br)cc3)nn2)n1-c1ccccc1
IC50 [1]: 5.89 µM

O=c1c2ccccc2nc(SCc2cn(-c3ccc(Cl)cc3)nn2)n1-c1ccc(Br)cc1
IC50 [1]: 5.27 µM | IC50 [5]: 5.21 µM | IC50 (THP-1 [6]): 5.63 µM | inhibition in vivo at 5 mg/kg (Rattus norvegicus [2]): 70.8% | inhibition in vivo at 5 mg/kg (Rattus norvegicus [3]): 225% | Activity (Rattus norvegicus [7]): Toxic | Activity (Rattus norvegicus [8]): Toxic | Activity (Rattus norvegicus [9]): Non-Toxic | Activity (Rattus norvegicus [10]): Non-Toxic | Activity (THP-1 [11]): Non-Toxic | Activity (Rattus norvegicus [12]): Non-Toxic | inhibition in vivo at 5 mg/kg (Rattus norvegicus [4]): 50%

CCCC[C@@H](Sc1nc2ccccc2c(=O)n1-c1cccc(C)c1)C(=O)N1CCC[C@]2(CCCNC2)C1
IC50 [13]: 1.3 µM

C#CCSc1nc2ccccc2c(=O)n1-c1ccc(Br)cc1
IC50 [1]: 3.87 µM | IC50 [5]: 6.21 µM | IC50 (THP-1 [6]): 4.77 µM | inhibition in vivo at 5 mg/kg (Rattus norvegicus [2]): 70.8% | inhibition in vivo at 5 mg/kg (Rattus norvegicus [3]): 225% | Activity (Rattus norvegicus [7]): Non-Toxic | Activity (Rattus norvegicus [14]): Non-Toxic | Activity (THP-1 [11]): Non-Toxic | inhibition in vivo at 5 mg/kg (Rattus norvegicus [4]): 50%

C#CCSc1nc2ccccc2c(=O)n1-c1ccc(Cl)cc1
IC50 [1]: 4.26 µM

O=C(O)c1ccc(-n2cc(CSc3nc4ccccc4c(=O)n3-c3ccc(Cl)cc3)nn2)cc1
IC50 [1]: 2.97 µM | IC50 [5]: 7.62 µM | IC50 (THP-1 [6]): 0.13 µM | inhibition in vivo at 5 mg/kg (Rattus norvegicus [2]): 70.8% | inhibition in vivo at 5 mg/kg (Rattus norvegicus [3]): 225% | Activity (Rattus norvegicus [7]): Toxic | Activity (Rattus norvegicus [8]): Toxic | Activity (Rattus norvegicus [9]): Non-Toxic | Activity (Rattus norvegicus [10]): Non-Toxic | Activity (THP-1 [11]): Non-Toxic | Activity (Rattus norvegicus [12]): Non-Toxic | inhibition in vivo at 5 mg/kg (Rattus norvegicus [4]): 50%

Cc1ccc(Cl)c(Nc2ccccc2C(=O)O)c1Cl [MECLOFENAMATE SODIUM]
IC50 [5]: 5.64 µM

COc1ccc(-n2c(SCc3cn(-c4ccc(C(=O)O)cc4)nn3)nc3ccccc3c2=O)cc1
IC50 [1]: 11.9 µM

COc1ccc(-c2cc(CSc3nc4ccccc4c(=O)n3-c3ccc(Cl)cc3)on2)cc1OC
IC50 [1]: 10.2 µM

O=C(O)c1ccc(-n2cc(CSc3nc4ccccc4c(=O)n3-c3ccccc3)nn2)cc1
IC50 [1]: 5.89 µM

O=c1c2ccccc2nc(SCc2cn(-c3ccccc3)nn2)n1-c1ccc(Br)cc1
IC50 [1]: 4.78 µM

CC(c1cc2ccccc2s1)N(O)C(N)=O (stereo unspecified) [ZILEUTON]
IC50 [5]: 2.41 µM

COc1ccc(-c2cc(CSc3nc4ccccc4c(=O)n3-c3ccc(OC)cc3)on2)cc1
IC50 [1]: 6.23 µM

O=c1c2ccccc2nc(SCc2cn(-c3ccc(Cl)cc3)nn2)n1-c1ccc(Cl)cc1
IC50 [1]: 6.32 µM

COc1ccc(-c2cc(CSc3nc4ccccc4c(=O)n3-c3ccc(Cl)cc3)on2)cc1
IC50 [1]: 11.2 µM

Cc1ccc(-c2cc(C(F)(F)F)nn2-c2ccc(S(N)(=O)=O)cc2)cc1 [CELECOXIB]
inhibition in vivo at 5 mg/kg (Rattus norvegicus [2]): 33.3% | Activity (Rattus norvegicus [14]): Non-Toxic

O=c1c2ccccc2nc(SCc2cn(-c3ccc(Br)cc3)nn2)n1-c1ccc(Cl)cc1
IC50 [1]: 3.67 µM

O=C(O)c1ccc(-n2cc(CSc3nc4ccccc4c(=O)n3-c3ccc(Br)cc3)nn2)cc1
IC50 [1]: 8.67 µM

O=C(O)Cc1ccccc1Nc1c(Cl)cccc1Cl [DICLOFENAC]
IC50 (THP-1 [6]): 4.86 µM | inhibition in vivo at 5 mg/kg (Rattus norvegicus [2]): 66.7% | inhibition in vivo at 5 mg/kg (Rattus norvegicus [3]): 208% | Activity (THP-1 [11]): Non-Toxic

COc1ccc(-n2c(SCc3cc(-c4ccc(Cl)cc4)no3)nc3ccccc3c2=O)cc1
IC50 [1]: 7.68 µM

O=c1c2ccccc2nc(SCc2cn(-c3ccc(Cl)cc3)nn2)n1-c1ccccc1
IC50 [1]: 4.36 µM | IC50 [5]: 4.33 µM | IC50 (THP-1 [6]): 1.24 µM | inhibition in vivo at 5 mg/kg (Rattus norvegicus [2]): 70.8% | inhibition in vivo at 5 mg/kg (Rattus norvegicus [3]): 225% | Activity (Rattus norvegicus [7]): Non-Toxic | Activity (Rattus norvegicus [14]): Non-Toxic | Activity (THP-1 [11]): Non-Toxic | inhibition in vivo at 5 mg/kg (Rattus norvegicus [4]): 50%

O=c1c2ccccc2nc(SCc2cn(-c3ccccc3)nn2)n1-c1ccccc1
IC50 [1]: 7.33 µM

COc1ccc(-n2c(SCc3cn(-c4ccc(Cl)cc4)nn3)nc3ccccc3c2=O)cc1
IC50 [1]: 4.22 µM

COc1ccc(-c2cc(CSc3nc4ccccc4c(=O)n3-c3ccc(Br)cc3)on2)cc1
IC50 [1]: 5.34 µM | inhibition in vivo at 5 mg/kg (Rattus norvegicus [2]): 61.1% | inhibition in vivo at 5 mg/kg (Rattus norvegicus [3]): 192% | inhibition in vivo at 5 mg/kg (Rattus norvegicus [4]): 50%

COc1ccc(-c2cc(CSc3nc4ccccc4c(=O)n3-c3ccccc3)on2)cc1OC
IC50 [1]: 9.23 µM

COc1ccc(-c2cc(CSc3nc4ccccc4c(=O)n3-c3ccccc3)on2)cc1
IC50 [1]: 4.67 µM | inhibition in vivo at 5 mg/kg (Rattus norvegicus [2]): 61.1% | inhibition in vivo at 5 mg/kg (Rattus norvegicus [3]): 192% | inhibition in vivo at 5 mg/kg (Rattus norvegicus [4]): 50%

O=c1c2ccccc2nc(SCc2cc(-c3ccc(Cl)cc3)no2)n1-c1ccc(Br)cc1
IC50 [1]: 9.14 µM

O=c1c2ccccc2nc(SCc2cc(-c3ccc(Cl)cc3)no2)n1-c1ccccc1
IC50 [1]: 8.79 µM

O=c1c2ccccc2nc(SCc2cn(-c3ccc(Br)cc3)nn2)n1-c1ccc(Br)cc1
IC50 [1]: 3.89 µM | IC50 [5]: 3.98 µM | IC50 (THP-1 [6]): 99.4 µM | inhibition in vivo at 5 mg/kg (Rattus norvegicus [2]): 41.7% | inhibition in vivo at 5 mg/kg (Rattus norvegicus [3]): 133% | Activity (Rattus norvegicus [7]): Toxic | Activity (THP-1 [11]): Non-Toxic | Activity (Rattus norvegicus [12]): Toxic | inhibition in vivo at 5 mg/kg (Rattus norvegicus [4]): 50%

C#CCSc1nc2ccccc2c(=O)n1-c1ccc(OC)cc1
IC50 [1]: 6.54 µM

COc1ccc(-n2c(SCc3cc(-c4ccc(OC)c(OC)c4)no3)nc3ccccc3c2=O)cc1
IC50 [1]: 6.53 µM
